Reference: article PMC12154458, “High-Throughput Screens of Repurposing Hub and DOS Chemical Libraries Reveal Compounds with Novel and Potent Inhibitory Activity Against the Essential Non-Neuronal Acetylcholinesterase of Schistosoma mansoni (SmTAChE)” (International Journal of Molecular Sciences, 2025)
pIC50: −log10 of the molar value. Like-named read-outs stand apart in the source and are kept apart here.

Columns and labels:
[1] = target: T1, rSmTAChE (Schistosoma mansoni, UniProt A0A3Q0KMM5); test: biochemical
T1 sequence (A0A3Q0KMM5 27-661 limits assumed): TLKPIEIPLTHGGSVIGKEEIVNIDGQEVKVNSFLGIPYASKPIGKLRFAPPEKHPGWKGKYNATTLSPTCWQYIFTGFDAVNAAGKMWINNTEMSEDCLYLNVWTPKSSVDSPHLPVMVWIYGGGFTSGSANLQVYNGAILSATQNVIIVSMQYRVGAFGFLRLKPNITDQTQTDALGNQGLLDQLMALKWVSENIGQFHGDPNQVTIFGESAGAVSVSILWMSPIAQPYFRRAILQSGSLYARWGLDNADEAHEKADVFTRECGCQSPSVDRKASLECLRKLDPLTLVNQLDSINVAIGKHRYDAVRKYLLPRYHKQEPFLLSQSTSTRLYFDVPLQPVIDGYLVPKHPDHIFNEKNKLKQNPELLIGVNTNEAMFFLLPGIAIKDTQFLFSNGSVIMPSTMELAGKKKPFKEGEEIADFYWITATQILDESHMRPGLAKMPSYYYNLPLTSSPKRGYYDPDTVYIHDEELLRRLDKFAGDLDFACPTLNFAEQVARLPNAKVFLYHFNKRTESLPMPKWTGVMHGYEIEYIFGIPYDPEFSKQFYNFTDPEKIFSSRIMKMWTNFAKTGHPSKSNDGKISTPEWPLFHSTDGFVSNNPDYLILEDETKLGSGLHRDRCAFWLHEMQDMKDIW

[2] = target: T1, rSmTAChE; format: biochemical
[3] = target: recombinant human acetylcholinesterase, rHsAChE (Homo sapiens, UniProt P22303); test: biochemical; conditions: for pIC50: read-out: qAC50 (IC50), rHsAChE; for IC50: read-out: IC50 (µM) rHsAChE
recombinant human acetylcholinesterase, rHsAChE, sequence (P22303 32-614): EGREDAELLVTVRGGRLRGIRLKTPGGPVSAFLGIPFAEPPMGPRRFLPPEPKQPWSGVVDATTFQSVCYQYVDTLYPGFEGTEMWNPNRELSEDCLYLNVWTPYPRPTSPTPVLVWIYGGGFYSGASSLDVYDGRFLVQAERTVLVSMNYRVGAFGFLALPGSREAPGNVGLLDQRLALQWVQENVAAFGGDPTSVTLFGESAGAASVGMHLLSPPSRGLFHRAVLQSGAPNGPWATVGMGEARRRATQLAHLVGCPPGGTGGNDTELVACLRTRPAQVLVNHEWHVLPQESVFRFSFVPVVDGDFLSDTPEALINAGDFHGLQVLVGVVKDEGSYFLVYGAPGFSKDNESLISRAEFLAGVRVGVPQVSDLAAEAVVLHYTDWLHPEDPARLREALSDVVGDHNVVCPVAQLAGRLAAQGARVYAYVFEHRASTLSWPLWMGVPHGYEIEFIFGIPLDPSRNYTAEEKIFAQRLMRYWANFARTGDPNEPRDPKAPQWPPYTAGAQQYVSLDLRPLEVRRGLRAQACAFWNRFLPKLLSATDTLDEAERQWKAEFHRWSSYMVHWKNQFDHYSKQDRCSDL

[4] = read-out: qAC50 (IC50), rSmTAChE
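For Inhibition (%) (Average) in this document: mostly 20 µM final but a few compounds at 5 or 10 µM.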
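For Inhibition (%) Replicate A in this document: mostly 20 µM final but a few compounds at 5 or 10 µM.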
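For Inhibition (%) Replicate B in this document: mostly 20 µM final but a few compounds at 5 or 10 µM.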

Row | SMILES | Inhibition (%) (Average) [1] | Inhibition (%) Replicate A [1] | Inhibition (%) Replicate B [1] | Data Mode (curve class), rSmTAChE [2] | Data Mode (curve class), rHsAChE [3] | rSmTAChE Data Mode [2] | rHsAChE Data Mode [3] | other results
1 | CCOC(=O)N1c2ccc(C(F)(F)F)cc2[C@@H](N(Cc2cc(C(F)(F)F)cc(C(F)(F)F)c2)C(=O)OC)C[C@H]1CC [BRD-K55675242-001-03-0] | 71.11% | 72.88% | 69.34% | inactive | decreasing (weakly active) | – | – | pIC50 [3]: < 4.42
2 | COc1ccc(NC(=O)Nc2ccc3c(c2)[C@@H]2C[C@H](CC(=O)NCC4CC4)O[C@@H](CO)[C@@H]2O3)cc1 [BRD-K17285234-001-01-9] | 89.37% | 90.41% | 88.34% | – | – | decreasing (weakly active) | inactive | –
3 | O=C(Nc1ncc(SCCN2CCCC2)s1)[C@]1(c2ccc(S(=O)(=O)C3CC3)cc2)C[C@H]1C1CCCCC1 [LY2608204, reference compound] | – | 71.61% | 81.29% | decreasing (weakly active) | decreasing | – | – | rSmTAChE HTS Inhibition (Ave, %) ([1]; 20 µM): 76.45%; IC50 ([2]; read-out: IC50 (µM) rSmTAChE): > 12 µM; SI (Sm/Hs) [3]: 23.28; IC50 [3]: 0.52 µM
4 | CC(C)n1cnc2c(NCCc3ccc(O)cc3)nc(-c3csc4ccccc34)nc21 [BRD-K36739687-001-03-0] | 68.06% | 70.28% | 65.85% | inactive | inactive | – | – | –
5 | COc1ccc(NC(=O)Nc2ccc3c(c2)[C@H]2C[C@@H](CC(=O)NCc4ccccn4)O[C@@H](CO)[C@H]2O3)cc1 [BRD-K46319090-001-01-4] | 89.33% | 88.58% | 90.08% | – | – | decreasing | inactive | pIC50 ([2]; read-out: rSmTAChE qAC50): 4.42
6 | CCCN1C[C@H](CSC)C[C@@H]2c3cccc4[nH]cc(c34)C[C@H]21 [BRD-K60770992-066-25-0] | 71.65% | 73.49% | 69.82% | decreasing (weakly active) | decreasing | – | – | pIC50 [2, 4]: < 4.42; pIC50 [3]: 4.53
7 | CSc1cc2c(cc1C(F)(F)F)N(C(=O)Nc1cccnc1)CC2 [BRD-K14807180-001-02-5] | 86.29% | 87.94% | 84.63% | inactive | inactive | – | – | –
8 | CCc1c(C(=O)NCCc2ccc(N3CCCCC3)cc2)[nH]c2ccc(Cl)cc12 [BRD-K57597776-001-01-2] | 61.28% | 60.33% | 62.24% | inactive | inactive | – | – | –
9 | O=C(C[C@H]1C[C@H]2c3cc(NC(=O)Nc4ccc(C(F)(F)F)cc4)ccc3O[C@H]2[C@@H](CO)O1)NC1CCCCC1 [BRD-K18925241-001-01-0] | 70.28% | 62.39% | 78.17% | – | – | decreasing (weakly active) | inactive | –
10 | COc1cccc(C#Cc2ccc([C@H]3[C@@H](CO)N(C(=O)c4ccccn4)[C@H]3C#N)cc2)c1 [BRD-K64190282-004-01-8, (2R,3R,4S)-4-(hydroxymethyl)-3-[4-[2-(3-methoxyphenyl)ethynyl]phenyl]-1-[oxo(2-pyridinyl)methyl]-2-azetidinecarbonitrile] | – | – | – | – | – | decreasing | – | inhibition at 20 µM ([1]; read-out: rSmTAChE HTS Inhibition (Ave, %)): 92.2%; SI (Hs/Sm) [2]: 2.59; IC50 ([3]; Table 2, DOS-A library, Inactive = inactive at the maximum tested concentration (40 µM)): 33.7 µM; rHsAChE Data Mode ([3]; dose response curve classification, Table S4, DOS-A): decreasing
11 | CC(C)C#Cc1ccc([C@@H]2[C@@H](CO)N3C(=O)CN(S(=O)(=O)c4ccccc4)C[C@@H]23)cc1 [BRD-K69261014-001-01-3] | 63.59% | 66.79% | 60.39% | – | – | inactive | increasing (weakly active) | –
12 | C[C@]12CC[C@@H]3c4ccc(O)cc4C[C@@H](CCCCCCCCC[S+]([O-])CCCC(F)(F)C(F)(F)F)[C@H]3[C@@H]1CC[C@@H]2O (stereo partly shown) [BRD-A85667082-001-13-5] | 86.15% | 85.50% | 86.80% | inactive | inactive | – | – | –
13 | Cc1cc(SCc2sc(-c3ccc(C(F)(F)F)cc3)nc2C)ccc1OCC(=O)O [BRD-K14880289-001-03-0] | 75.45% | 71.99% | 78.91% | decreasing | decreasing | – | – | pIC50 [2, 4]: 4.79; pIC50 [3]: 4.98
14 | O=C(C[C@@H]1C[C@@H]2c3cc(NC(=O)Nc4ccccc4)ccc3O[C@@H]2[C@@H](CO)O1)NC1CCCC1 [BRD-K74918080-001-01-0] | 91.31% | 92.86% | 89.77% | – | – | decreasing (weakly active) | inactive | –
15 | COc1ccc(NC(=O)Nc2ccc3c(c2)[C@H]2C[C@@H](CC(=O)NCC(F)(F)F)O[C@@H](CO)[C@H]2O3)cc1 [BRD-K54729370-001-01-4] | 90.84% | 91.00% | 90.69% | – | – | inactive | inactive | –
16 | Clc1ccc(C(Cn2ccnc2)OCc2ccc(Sc3ccccc3)cc2)c(Cl)c1 (stereo not shown) [BRD-A33697453-008-02-4] | 70.27% | 64.14% | 76.40% | inactive | inactive | – | – | –
17 | O=C(O)C1(C(=O)O)CCC1.[NH2-].[NH2-].[Pt+2] [BRD-K90947825-001-02-7] | 69.15% | 70.08% | 68.22% | decreasing | decreasing (weakly active) | – | – | pIC50 [2, 4]: 4.45; pIC50 [3]: < 4.42
18 | Clc1ccc(C(c2ccccc2Cl)C(Cl)Cl)cc1 (stereo not shown) [BRD-A31204924-001-14-2] | 71.30% | 71.94% | 70.66% | inactive | decreasing (weakly active) | – | – | pIC50 [3]: < 4.42
19 | COc1ccc(C#Cc2ccc3c(c2)O[C@H](CN(C)S(=O)(=O)c2ccccc2F)[C@@H](C)CN([C@H](C)CO)S3(=O)=O)cc1 [BRD-K53241408-001-01-7] | 74.07% | 75.51% | 72.63% | – | – | inactive | inactive | –
20 | CCCC[C@@H](CC)COC(=O)/C=C/c1ccc(OC)cc1 [BRD-K19972289-001-01-4] | 64.81% | 66.96% | 62.66% | inactive | decreasing | – | – | pIC50 [3]: 4.59
21 | COc1ccc(C#Cc2ccc3c(c2)O[C@H](CN(C)S(=O)(=O)c2ccccc2F)[C@H](C)CN([C@@H](C)CO)S3(=O)=O)cc1 [BRD-K71357636-001-01-3] | 64.93% | 63.67% | 66.19% | – | – | inactive | inactive | –
22 | O=C(Cc1cccc(OC(F)(F)F)c1)Nc1ccc(CCCCc2nnc(NC(=O)Cc3ccccn3)s2)nn1 [BRD-K58070273-001-03-3] | 71.54% | 74.28% | 68.80% | decreasing (weakly active) | inactive | – | – | pIC50 [2, 4]: < 4.42
